Key:
[1] = test system: B. subtilis 168; test: Bliss interaction score (quartile over a dose matrix) (fitness difference); higher = more antagonism (negative = synergy)
Procedure, shortened: (§1)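 Fitness is OD595 at stationary-phase entry relative to the plate's robust no-drug mean, capped at 1. Single-drug fitness was inferred from combinations. The Bliss score is observed minus product-expected fitness, summarised by quartiles over technical, biological and donor/recipient replicates.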

[2] = test system: S. pneumoniae D39V; test: as above
Procedure, shortened: as §1

[3] = test system: S. aureus Newman; test: as above
Procedure, shortened: as §1

[4] = test system: S. aureus DSM 20231; test: as above
Procedure, shortened: as §1

[5] = test system: S. pneumoniae D39V; test: fitness (endpoint OD595 vs no drug) (fraction); higher = more growth
Procedure, shortened: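 Fitness compares growth at the stationary-phase transition with the robust mean of no-drug control wells, as a ratio of optical densities. The ratio is capped at 1. Wells of 384-well plates held 30 µl, or 55 µl for S. pneumoniae, inoculated at OD595 0.01. Readings at OD595 every 30 min for 14 h at 37 °C were corrected against the first reading.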
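Throughout, for Bliss interaction score (quartile over a dose matrix): first quartile when negative (synergy) and third quartile when positive (antagonism).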

## C[C@@H](O)[C@H]1C(=O)N2C(C(=O)O)=C(SCCNC=N)C[C@H]12 [Imipenem] + CCC(C)C1C(=O)NC(=C)C(=O)NC(C(=O)NC(CSCC(C(=O)N1)NC(=O)/C(=C/C)/NC(=O)C(C(C)CC)N)C(=O)NC2C(SCC(NC(=O)CNC(=O)C3CCCN3C2=O)C(=O)NC(CCCCN)C(=O)NC4C(SCC(NC(=O)CNC(=O)C(NC(=O)C(NC(=O)C(NC(=O)CNC4=O)C)CC(C)C)CCSC)C(=O)NC(CC(=O)N)C(=O)NC(CCSC)C(=O)NC(CCCCN)C(=O)NC5C(SCC6C(=O)NC(C(=O)NC(CSC(C(C(=O)N6)NC(=O)C(NC5=O)C)C)C(=O)NC(CO)C(=O)NC(C(C)CC)C(=O)NC(CC7=CN=CN7)C(=O)NC(C(C)C)C(=O)NC(=C)C(=O)NC(CCCCN)C(=O)O)CC8=CN=CN8)C)C)C)CC(C)C [Nisin]
[1]; main component drawn
  Bliss interaction score: -0.0431
[2]; main component drawn
  Bliss interaction score: -0.0573
[3]; main component drawn
  Bliss interaction score: -0.0142
[4]; main component drawn
  Bliss interaction score: 0.0486
[5]; first compound 0.005 µg/mL, partner 0.4275 µg/mL, main component drawn
  fitness: ≥ 1
[5]; first compound 0.005 µg/mL, partner 0.855 µg/mL, main component drawn
  fitness: 0.992
[5]; first compound 0.005 µg/mL, partner 1.71 µg/mL, main component drawn
  fitness: 0.133
[5]; first compound 0.0065 µg/mL, partner 1.6 µg/mL, main component drawn
  fitness: 0
[5]; first compound 0.0065 µg/mL, partner 3.2 µg/mL, main component drawn
  fitness: 0
[5]; first compound 0.0065 µg/mL, partner 6.4 µg/mL, main component drawn
  fitness: 0
[5]; first compound 0.01 µg/mL, partner 0.4275 µg/mL, main component drawn
  fitness: 0.988
[5]; first compound 0.01 µg/mL, partner 0.855 µg/mL, main component drawn
  fitness: 0.993
[5]; first compound 0.01 µg/mL, partner 1.71 µg/mL, main component drawn
  fitness: 0.0676
[5]; first compound 0.013 µg/mL, partner 1.6 µg/mL, main component drawn
  fitness: 0.193
[5]; first compound 0.013 µg/mL, partner 3.2 µg/mL, main component drawn
  fitness: 0.0047
[5]; first compound 0.013 µg/mL, partner 6.4 µg/mL, main component drawn
  fitness: 0.0067
[5]; first compound 0.02 µg/mL, partner 0.4275 µg/mL, main component drawn
  fitness: ≥ 1
[5]; first compound 0.02 µg/mL, partner 0.855 µg/mL, main component drawn
  fitness: ≥ 1
[5]; first compound 0.02 µg/mL, partner 1.71 µg/mL, main component drawn
  fitness: 0.0904
[5]; first compound 0.026 µg/mL, partner 1.6 µg/mL, main component drawn
  fitness: 0.448
[5]; first compound 0.026 µg/mL, partner 3.2 µg/mL, main component drawn
  fitness: 0.0017
[5]; first compound 0.026 µg/mL, partner 6.4 µg/mL, main component drawn
  fitness: 0

## C[C@@H](O)[C@H]1C(=O)N2C(C(=O)O)=C(SCCNC=N)C[C@H]12 [Imipenem] + CCC[C@@H]1C[C@@H](C(=O)N[C@@H]([C@H]2O[C@H](SC)[C@H](O)[C@@H](O)[C@H]2O)[C@@H](C)O)N(C)C1 [Lincomycin]
[1]
  Bliss interaction score: 0.163
[2]
  Bliss interaction score: -0.0603
[3]
  Bliss interaction score: 0.0416
[4]
  Bliss interaction score: 0.09
[5]; first compound 0.005 µg/mL, partner 0.215 µg/mL
  fitness: 0.829
[5]; first compound 0.005 µg/mL, partner 0.43 µg/mL
  fitness: 0.719
[5]; first compound 0.005 µg/mL, partner 0.86 µg/mL
  fitness: 0.474
[5]; first compound 0.0065 µg/mL, partner 0.2 µg/mL
  fitness: 0.68
[5]; first compound 0.0065 µg/mL, partner 0.4 µg/mL
  fitness: 0.563
[5]; first compound 0.0065 µg/mL, partner 0.8 µg/mL
  fitness: 0.0187
[5]; first compound 0.01 µg/mL, partner 0.215 µg/mL
  fitness: 0.846
[5]; first compound 0.01 µg/mL, partner 0.43 µg/mL
  fitness: 0.722
[5]; first compound 0.01 µg/mL, partner 0.86 µg/mL
  fitness: 0.451
[5]; first compound 0.013 µg/mL, partner 0.2 µg/mL
  fitness: 0.738
[5]; first compound 0.013 µg/mL, partner 0.4 µg/mL
  fitness: 0.626
[5]; first compound 0.013 µg/mL, partner 0.8 µg/mL
  fitness: 0.0703
[5]; first compound 0.02 µg/mL, partner 0.215 µg/mL
  fitness: 0.814
[5]; first compound 0.02 µg/mL, partner 0.43 µg/mL
  fitness: 0.71
[5]; first compound 0.02 µg/mL, partner 0.86 µg/mL
  fitness: 0.453
[5]; first compound 0.026 µg/mL, partner 0.2 µg/mL
  fitness: 0.693
[5]; first compound 0.026 µg/mL, partner 0.4 µg/mL
  fitness: 0.596
[5]; first compound 0.026 µg/mL, partner 0.8 µg/mL
  fitness: 0.0319

## C[C@@H](O)[C@H]1C(=O)N2C(C(=O)O)=C(SCCNC=N)C[C@H]12 [Imipenem] + CCN(CC)CCOC(=O)c1ccc(N)cc1 [Procaine]
[1]
  Bliss interaction score: 0.0429
[2]
  Bliss interaction score: 0.0493
[3]
  Bliss interaction score: 0.0422
[4]
  Bliss interaction score: 0.0667
[5]; first compound 0.005 µg/mL, partner 85.5 µg/mL, one replicate
  fitness: 0.932
[5]; first compound 0.005 µg/mL, partner 171 µg/mL, one replicate
  fitness: ≥ 1
[5]; first compound 0.005 µg/mL, partner 342 µg/mL, one replicate
  fitness: 0.923
[5]; first compound 0.0065 µg/mL, partner 85.5 µg/mL
  fitness: 0.977
[5]; first compound 0.0065 µg/mL, partner 171 µg/mL
  fitness: 0.957
[5]; first compound 0.0065 µg/mL, partner 342 µg/mL
  fitness: 0.957
[5]; first compound 0.01 µg/mL, partner 85.5 µg/mL, one replicate
  fitness: 0.963
[5]; first compound 0.01 µg/mL, partner 171 µg/mL, one replicate
  fitness: 0.994
[5]; first compound 0.01 µg/mL, partner 342 µg/mL, one replicate
  fitness: 0.931
[5]; first compound 0.013 µg/mL, partner 85.5 µg/mL
  fitness: 0.978
[5]; first compound 0.013 µg/mL, partner 171 µg/mL
  fitness: 0.963
[5]; first compound 0.013 µg/mL, partner 342 µg/mL
  fitness: 0.912
[5]; first compound 0.02 µg/mL, partner 85.5 µg/mL, one replicate
  fitness: 0.985
[5]; first compound 0.02 µg/mL, partner 171 µg/mL, one replicate
  fitness: ≥ 1
[5]; first compound 0.02 µg/mL, partner 342 µg/mL, one replicate
  fitness: 0.883
[5]; first compound 0.026 µg/mL, partner 85.5 µg/mL
  fitness: 0.888
[5]; first compound 0.026 µg/mL, partner 171 µg/mL
  fitness: 0.917
[5]; first compound 0.026 µg/mL, partner 342 µg/mL
  fitness: 0.841
